Patent publication US20230346777A1, “USE OF SGC ACTIVATORS FOR THE TREATMENT OF OPHTHALMOLOGIC DISEASES” (Bayer Aktiengesellschaft, priority 2020, published 2023)
“Also recorded” adds a separate entry of the source. Where a name gives a salt, the structure may show the parent alone.

Experiments:
[1] = target: T1, recombinant guanylate cyclase reporter cell line (Rattus norvegicus, UniProt P20595); test: Effect on a recombinant guanylate cyclase reporter cell line; assay type: cell-based
T1 construct: expressed in transfected cells; CHO by own knowledge of the cited Wunder et al. 2005
T1 sequence (P20595 1-619): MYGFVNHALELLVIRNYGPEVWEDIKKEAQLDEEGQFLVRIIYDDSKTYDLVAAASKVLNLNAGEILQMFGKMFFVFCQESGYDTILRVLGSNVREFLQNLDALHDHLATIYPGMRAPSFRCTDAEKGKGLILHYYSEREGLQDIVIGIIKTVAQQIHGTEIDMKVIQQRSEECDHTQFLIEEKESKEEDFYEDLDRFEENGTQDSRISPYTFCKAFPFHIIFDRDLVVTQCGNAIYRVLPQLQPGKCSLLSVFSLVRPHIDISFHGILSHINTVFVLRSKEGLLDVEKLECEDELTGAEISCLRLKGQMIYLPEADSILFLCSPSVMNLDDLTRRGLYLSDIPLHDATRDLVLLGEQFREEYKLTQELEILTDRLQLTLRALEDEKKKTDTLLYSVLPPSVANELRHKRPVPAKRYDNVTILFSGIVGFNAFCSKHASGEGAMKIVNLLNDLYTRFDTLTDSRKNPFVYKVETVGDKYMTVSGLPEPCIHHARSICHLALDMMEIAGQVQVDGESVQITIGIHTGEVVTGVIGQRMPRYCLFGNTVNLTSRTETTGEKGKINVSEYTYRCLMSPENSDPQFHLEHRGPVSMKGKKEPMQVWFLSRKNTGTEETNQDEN
T1 sequence (P19686 1-690 partner): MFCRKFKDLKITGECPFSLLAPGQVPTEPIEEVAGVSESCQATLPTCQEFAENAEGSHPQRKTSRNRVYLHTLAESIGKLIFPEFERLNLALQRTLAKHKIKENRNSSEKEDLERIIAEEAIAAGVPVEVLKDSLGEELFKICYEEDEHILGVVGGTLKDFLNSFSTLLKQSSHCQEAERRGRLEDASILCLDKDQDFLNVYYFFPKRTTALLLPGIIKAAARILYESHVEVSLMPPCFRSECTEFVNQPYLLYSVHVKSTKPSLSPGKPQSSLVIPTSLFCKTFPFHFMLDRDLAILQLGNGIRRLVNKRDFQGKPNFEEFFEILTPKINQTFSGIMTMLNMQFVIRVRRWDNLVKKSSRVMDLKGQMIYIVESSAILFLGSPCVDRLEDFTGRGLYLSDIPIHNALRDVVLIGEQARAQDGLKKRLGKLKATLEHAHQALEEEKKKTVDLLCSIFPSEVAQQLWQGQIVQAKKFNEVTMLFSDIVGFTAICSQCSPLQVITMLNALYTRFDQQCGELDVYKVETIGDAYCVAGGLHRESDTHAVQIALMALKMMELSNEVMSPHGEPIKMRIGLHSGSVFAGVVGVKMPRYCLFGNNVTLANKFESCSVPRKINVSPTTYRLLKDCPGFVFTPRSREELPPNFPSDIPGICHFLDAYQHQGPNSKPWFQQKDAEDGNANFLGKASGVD
Method: B-1. Effect on a Recombinant Guanylate Cyclase Reporter Cell Line
The cellular activity of the compounds according to the invention was determined using a recombinant guanylate cyclase reporter cell line, as described in F. Wunder et al., Anal. Biochem. 339, 104-112 (2005).

[2] = test system: Streptozotocin-induced DR model in rat; test: Streptozotocin-induced DR model in rat (STZ rat model); assay type: in vivo; conditions: STZ diabetic rats, vs vehicle
Method: B-9 Streptozotocin-Induced DR Model in Rat (STZ Rat Model)
135 male 6-week-old male SD rats (200 to 250 g) were randomized to become diabetic or non-diabetic. Following an overnight fast, SD rats were assigned to become diabetic by receiving a single intraperitoneal injection of streptozotocin (55 mg per kg; Sigma-Aldrich, St. Louis, USA) diluted in 0.1M citrate buffer, pH 4.5. Rats were weighed and their blood glucose levels measured (Accu-check Advantage II Blood Glucose Monitor, Roche Diagnostics, USA). Only rats with blood glucose levels greater than 250 mg/dL were considered diabetic (Li et al. 2002). Insulin was administered three times per week to reduce mortality and promote weight gain (2 to 4 units s.c. Humulin NPH, Eli Lilly and Co., Indianapolis, Ind., USA). The pathological events that occur in the early stages of DR were evaluated. Functional read-out of retinal electrical signal in response to light stimulation “b-wave amplitude (μv)” represents inner retinal function. The retinal function ERG (Electroretinography) was tested 2 months after STZ injection according to the method disclosed in McCulloch et al., 2015 and animals were randomized into subgroups with same severity. The animals received treatment after randomization for 2 months and were terminated then after. […]

CC(C)CN1CCN(c2ccc(-c3ccc(Cl)cc3N3CCC[C@@H](n4ncc(C(=O)O)c4C(F)F)C3)cc2)CC1 [Example 3, 1-{1-[4-Chloro-4′-(4-isobutylpiperazin-1-yl)[biphenyl]-2-yl]piperidin-3-yl}-5-(difluoromethyl)-1H-pyrazole-4-carboxylic acid hydrochloride]
EC50 [1]: 2.7 nM
MEC (minimum effective concentration) ([1]; hydrochloride): 0.6 nM
b wave amplitude (ERG, retinal function) ([2]; 15 mg/kg oral gavage QD for 2 months, started 2 months after STZ, hydrochloride, 15 mg/kg): significant higher b wave amplitude compared to vehicle treated animals; also recorded: reduces diabetic induced retinal dysfunction and diabetic retinopathy progression
diabetic retinopathy disease progression (b wave values) ([2]; oral QD, chronic diabetic retinopathy model): prevented disease progression
